Source: ChEMBL document CHEMBL5131403, “Synthesis and structure-activity relationship studies of 1,5-isomers of triazole-pyrrolopyrimidine as selective Janus kinase 1 (JAK1) inhibitors” (Bioorg Med Chem Lett, 2022)

Tests used:
[1] = biological target: T1, Tyrosine-protein kinase JAK1 (Homo sapiens, UniProt P23458); experiment: Inhibition of JAK1 (unknown origin) at 1 uM by biochemical assay relative to control
[2] = biological target: T2, Tyrosine-protein kinase JAK2 (Homo sapiens, UniProt O60674); experiment: Inhibition of JAK2 (unknown origin) at 1 uM by biochemical assay relative to control
[3] = biological target: T3, Tyrosine-protein kinase JAK3 (Homo sapiens) (UniProt P52333); experiment: Inhibition of JAK3 (unknown origin) at 1 uM by biochemical assay relative to control
T3 sequence (whole entry): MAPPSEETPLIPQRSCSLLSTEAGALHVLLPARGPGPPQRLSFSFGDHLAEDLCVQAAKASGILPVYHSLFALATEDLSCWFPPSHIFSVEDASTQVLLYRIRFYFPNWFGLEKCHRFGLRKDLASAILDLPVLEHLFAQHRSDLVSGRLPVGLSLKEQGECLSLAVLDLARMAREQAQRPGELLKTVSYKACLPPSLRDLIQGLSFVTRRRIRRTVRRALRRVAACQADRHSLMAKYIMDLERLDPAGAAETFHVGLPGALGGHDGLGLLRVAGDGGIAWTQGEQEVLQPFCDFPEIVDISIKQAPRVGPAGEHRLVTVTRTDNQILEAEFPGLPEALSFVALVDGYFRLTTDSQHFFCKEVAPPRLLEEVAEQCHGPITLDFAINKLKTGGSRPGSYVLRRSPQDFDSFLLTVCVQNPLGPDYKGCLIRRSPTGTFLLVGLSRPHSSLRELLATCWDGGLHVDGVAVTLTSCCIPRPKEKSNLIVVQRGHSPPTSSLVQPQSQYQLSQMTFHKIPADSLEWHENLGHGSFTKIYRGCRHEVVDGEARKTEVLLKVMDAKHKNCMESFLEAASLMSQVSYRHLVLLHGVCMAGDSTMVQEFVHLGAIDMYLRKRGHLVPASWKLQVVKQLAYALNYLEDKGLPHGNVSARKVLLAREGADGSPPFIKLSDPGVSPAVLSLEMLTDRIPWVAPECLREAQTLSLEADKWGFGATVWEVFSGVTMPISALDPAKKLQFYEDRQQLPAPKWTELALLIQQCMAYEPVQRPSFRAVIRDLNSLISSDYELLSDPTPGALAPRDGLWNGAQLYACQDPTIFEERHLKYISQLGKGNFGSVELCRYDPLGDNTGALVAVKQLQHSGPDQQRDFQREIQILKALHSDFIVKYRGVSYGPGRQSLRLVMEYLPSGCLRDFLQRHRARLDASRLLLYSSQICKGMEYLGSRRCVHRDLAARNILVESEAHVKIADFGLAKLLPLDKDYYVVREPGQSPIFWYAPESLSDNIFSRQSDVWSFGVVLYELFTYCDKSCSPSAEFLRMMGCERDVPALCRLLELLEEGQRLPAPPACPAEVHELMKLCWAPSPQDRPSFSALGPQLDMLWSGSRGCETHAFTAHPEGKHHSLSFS

[4] = biological target: T1, Tyrosine-protein kinase JAK1; experiment: Inhibition of JAK1 (unknown origin) by biochemical assay
[5] = biological target: T2, Tyrosine-protein kinase JAK2; experiment: Inhibition of JAK2 (unknown origin) by biochemical assay
[6] = biological target: Non-receptor tyrosine-protein kinase TYK2 (Homo sapiens) (UniProt P29597); experiment: Inhibition of TYK2 (unknown origin) at 1 uM by biochemical assay relative to control
Homo sapiens [7] = organism: Homo sapiens; experiment: Selectivity index, ratio of IC50 for inhibition of JAK2 (unknown origin) to IC50 for inhibition of JAK1 (unknown origin)
Homo sapiens [8] = organism: Homo sapiens; experiment: Selectivity index, ratio of inhibition of JAK1 (unknown origin) to inhibition of JAK2 (unknown origin)
Homo sapiens [9] = organism: Homo sapiens; experiment: Selectivity index, ratio of inhibition of JAK1 (unknown origin) to inhibition of JAK3 (unknown origin)

T2 sequence (O60674 whole entry): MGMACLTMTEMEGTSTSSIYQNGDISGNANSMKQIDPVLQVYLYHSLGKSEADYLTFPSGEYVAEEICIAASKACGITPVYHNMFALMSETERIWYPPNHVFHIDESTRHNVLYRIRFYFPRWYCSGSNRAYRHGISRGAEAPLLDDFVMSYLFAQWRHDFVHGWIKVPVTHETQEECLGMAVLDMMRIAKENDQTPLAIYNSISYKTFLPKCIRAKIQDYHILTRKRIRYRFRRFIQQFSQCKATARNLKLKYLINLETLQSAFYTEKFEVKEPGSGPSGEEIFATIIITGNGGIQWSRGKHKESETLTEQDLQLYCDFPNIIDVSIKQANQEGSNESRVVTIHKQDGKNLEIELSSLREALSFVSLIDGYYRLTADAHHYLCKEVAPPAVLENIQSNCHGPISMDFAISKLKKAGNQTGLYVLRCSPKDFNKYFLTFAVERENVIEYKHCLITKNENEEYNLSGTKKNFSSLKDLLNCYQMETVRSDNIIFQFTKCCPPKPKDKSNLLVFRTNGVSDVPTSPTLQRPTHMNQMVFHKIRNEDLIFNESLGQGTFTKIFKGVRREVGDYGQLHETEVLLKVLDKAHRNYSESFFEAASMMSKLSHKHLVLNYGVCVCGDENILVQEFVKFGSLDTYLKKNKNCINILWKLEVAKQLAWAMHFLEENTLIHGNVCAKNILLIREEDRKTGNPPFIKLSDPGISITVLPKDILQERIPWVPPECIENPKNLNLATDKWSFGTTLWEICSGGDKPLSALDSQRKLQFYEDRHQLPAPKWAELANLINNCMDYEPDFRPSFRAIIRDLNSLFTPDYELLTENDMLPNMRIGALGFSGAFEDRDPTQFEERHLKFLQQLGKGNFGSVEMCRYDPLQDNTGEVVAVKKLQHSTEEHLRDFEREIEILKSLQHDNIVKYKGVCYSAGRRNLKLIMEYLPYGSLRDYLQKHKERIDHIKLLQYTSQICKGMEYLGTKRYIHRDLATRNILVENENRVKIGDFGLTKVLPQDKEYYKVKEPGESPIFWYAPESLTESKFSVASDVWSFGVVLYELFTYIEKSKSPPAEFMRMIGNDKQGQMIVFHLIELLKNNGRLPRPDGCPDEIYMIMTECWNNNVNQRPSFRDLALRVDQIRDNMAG
Sequence of Non-receptor tyrosine-protein kinase TYK2 (Homo sapiens) (P29597 whole entry): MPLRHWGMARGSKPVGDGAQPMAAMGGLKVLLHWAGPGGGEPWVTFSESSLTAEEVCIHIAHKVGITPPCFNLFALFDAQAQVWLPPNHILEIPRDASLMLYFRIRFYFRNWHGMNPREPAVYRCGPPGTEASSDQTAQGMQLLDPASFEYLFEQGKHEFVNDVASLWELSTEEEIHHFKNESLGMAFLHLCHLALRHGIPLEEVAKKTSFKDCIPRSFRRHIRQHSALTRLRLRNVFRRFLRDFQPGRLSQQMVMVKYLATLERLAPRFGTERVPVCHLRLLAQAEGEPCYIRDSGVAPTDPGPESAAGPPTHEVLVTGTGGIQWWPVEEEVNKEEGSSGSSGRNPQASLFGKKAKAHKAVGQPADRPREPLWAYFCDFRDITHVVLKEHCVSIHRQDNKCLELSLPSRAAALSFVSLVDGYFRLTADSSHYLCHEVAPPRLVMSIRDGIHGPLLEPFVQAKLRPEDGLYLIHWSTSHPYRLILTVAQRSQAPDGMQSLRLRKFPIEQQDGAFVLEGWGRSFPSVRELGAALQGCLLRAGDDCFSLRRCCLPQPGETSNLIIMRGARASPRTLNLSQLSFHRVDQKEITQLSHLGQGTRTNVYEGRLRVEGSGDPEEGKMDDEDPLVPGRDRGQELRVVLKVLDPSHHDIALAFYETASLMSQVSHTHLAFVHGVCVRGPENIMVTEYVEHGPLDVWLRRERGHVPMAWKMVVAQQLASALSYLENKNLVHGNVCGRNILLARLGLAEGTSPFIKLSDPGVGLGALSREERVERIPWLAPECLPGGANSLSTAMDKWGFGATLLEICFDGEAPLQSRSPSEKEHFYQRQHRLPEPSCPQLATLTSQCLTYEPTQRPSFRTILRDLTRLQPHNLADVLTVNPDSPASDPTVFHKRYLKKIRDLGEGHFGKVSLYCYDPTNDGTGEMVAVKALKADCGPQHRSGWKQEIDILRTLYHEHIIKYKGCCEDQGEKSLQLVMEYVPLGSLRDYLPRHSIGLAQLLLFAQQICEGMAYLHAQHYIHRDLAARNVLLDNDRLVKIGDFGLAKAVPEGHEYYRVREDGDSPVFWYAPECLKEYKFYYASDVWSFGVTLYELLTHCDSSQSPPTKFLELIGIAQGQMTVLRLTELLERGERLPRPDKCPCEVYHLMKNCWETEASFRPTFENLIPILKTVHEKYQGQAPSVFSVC
T1 sequence (P23458 whole entry): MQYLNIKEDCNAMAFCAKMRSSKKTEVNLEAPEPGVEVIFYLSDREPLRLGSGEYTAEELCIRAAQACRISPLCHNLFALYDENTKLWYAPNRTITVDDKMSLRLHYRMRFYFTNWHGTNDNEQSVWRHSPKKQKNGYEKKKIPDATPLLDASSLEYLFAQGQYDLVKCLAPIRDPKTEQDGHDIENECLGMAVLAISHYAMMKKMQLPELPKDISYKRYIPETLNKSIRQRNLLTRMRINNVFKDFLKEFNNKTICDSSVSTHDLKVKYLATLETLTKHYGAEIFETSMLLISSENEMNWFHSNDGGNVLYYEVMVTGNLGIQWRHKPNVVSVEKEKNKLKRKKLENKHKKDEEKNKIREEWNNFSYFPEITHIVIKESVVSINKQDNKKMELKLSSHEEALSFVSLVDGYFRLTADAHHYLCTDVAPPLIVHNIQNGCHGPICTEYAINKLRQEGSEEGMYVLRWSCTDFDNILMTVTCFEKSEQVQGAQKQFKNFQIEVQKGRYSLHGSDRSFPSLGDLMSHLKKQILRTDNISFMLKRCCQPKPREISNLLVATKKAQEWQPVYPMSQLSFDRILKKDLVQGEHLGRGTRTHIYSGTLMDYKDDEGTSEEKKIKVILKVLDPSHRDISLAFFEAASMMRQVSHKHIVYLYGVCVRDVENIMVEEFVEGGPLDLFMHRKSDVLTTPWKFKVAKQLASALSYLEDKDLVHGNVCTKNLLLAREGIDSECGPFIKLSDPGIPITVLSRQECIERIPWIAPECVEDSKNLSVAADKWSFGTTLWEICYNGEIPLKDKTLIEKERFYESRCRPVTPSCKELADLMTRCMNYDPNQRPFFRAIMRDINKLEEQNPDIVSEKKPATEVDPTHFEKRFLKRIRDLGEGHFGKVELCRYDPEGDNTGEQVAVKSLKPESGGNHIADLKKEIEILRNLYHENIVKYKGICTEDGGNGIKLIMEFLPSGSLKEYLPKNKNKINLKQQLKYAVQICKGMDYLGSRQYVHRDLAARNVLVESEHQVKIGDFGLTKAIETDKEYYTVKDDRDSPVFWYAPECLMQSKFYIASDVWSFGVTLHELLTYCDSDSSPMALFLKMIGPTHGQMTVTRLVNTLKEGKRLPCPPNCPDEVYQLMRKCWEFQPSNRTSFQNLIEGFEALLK

Compound | inhibition [1] | inhibition [2] | inhibition [3] | IC50 [4] | IC50 [5] | inhibition [6] | Ratio IC50 (Homo sapiens [7]) | Selectivity Index (Homo sapiens [8]) | Selectivity Index (Homo sapiens [9])
Cc1c(-c2ncnc3[nH]ccc23)nnn1Cc1ccc(C(F)(F)F)cc1 | 86.7% | 32.7% | -8.7% |  |  |  |  |  | 
Cc1c(-c2ncnc3[nH]ccc23)nnn1Cc1ccc(S(C)(=O)=O)cc1 | 76.6% | 8% | 20.6% | 386 nM | > 10000 nM | 2.7% |  |  | 
Cc1c(-c2ncnc3[nH]ccc23)nnn1Cc1ccccc1OC(F)(F)F | 21.6% | 11.6% | 20.3% |  |  |  |  |  | 
Cc1c(-c2ncnc3[nH]ccc23)nnn1Cc1ccc(F)cc1 | 75% | 39% | 14% |  |  |  |  |  | 
Cc1c(-c2ncnc3[nH]ccc23)nnn1CCc1ccc(OC(F)(F)F)cc1 | 17.3% | 3.7% | 20.3% |  |  |  |  |  | 
Cc1c(-c2ncnc3[nH]ccc23)nnn1Cc1ccc(C#N)cc1 | 69.3% | 15% | 7.3% |  |  |  |  |  | 
Cc1c(-c2ncnc3[nH]ccc23)nnn1CCCc1ccccc1 | 48% | 10.7% | 11.3% |  |  |  |  | 5 | 12.3
Cc1c(-c2ncnc3[nH]ccc23)nnn1Cc1ccc(I)cc1 | 94% | 54% | 20.3% | 72 nM | 839 nM | 41.3% | 12 |  | 
Cc1c(-c2ncnc3[nH]ccc23)nnn1Cc1ccc(OC(F)(F)F)cc1 | 69.5% | 13% | -3.7% |  |  |  |  |  | 
Cc1ccc(Cn2nnc(-c3ncnc4[nH]ccc34)c2C)cc1 | 74% | 10% | 6% |  |  |  |  | 7.4 | 12.3
Cc1c(-c2ncnc3[nH]ccc23)nnn1Cc1ccc(C(C)(C)C)cc1 | 21.6% | 15% | 3% |  |  |  |  |  | 
Cc1c(-c2ncnc3[nH]ccc23)nnn1CCc1ccc(I)cc1 | 54.7% | 19.7% |  |  |  |  |  |  | 
Cc1ccc(CCn2nnc(-c3ncnc4[nH]ccc34)c2C)cc1 | 12.3% |  | 4% |  |  |  |  |  | 

Now from value to compound:

inhibition [1] | inhibition [2] | inhibition [3] | IC50 [4] | IC50 [5] | inhibition [6] | Ratio IC50 (Homo sapiens [7]) | Selectivity Index (Homo sapiens [8]) | Selectivity Index (Homo sapiens [9]) | Compound
61.7% | 49.7% | 52% |  |  |  |  |  |  | Cc1c(-c2ncnc3[nH]ccc23)nnn1CCCc1ccc(I)cc1
92% | 50% | 36% | 107 nM | 959 nM | 67% | 9 |  |  | Cc1c(-c2ncnc3[nH]ccc23)nnn1Cc1ccc(Cl)cc1
28% | 14% | -9% |  |  |  |  |  |  | Cc1c(-c2ncnc3[nH]ccc23)nnn1Cc1ccccc1
94% | 49.3% | 30% | 97 nM | 784 nM | 61.6% | 8 |  |  | Cc1c(-c2ncnc3[nH]ccc23)nnn1Cc1ccc(Br)cc1
12.5% | 18.7% | 13.3% |  |  |  |  |  |  | Cc1c(-c2ncnc3[nH]ccc23)nnn1CCc1ccccc1
51% | 3% | 5% |  |  |  |  | 17 | 10.2 | COc1ccc(Cn2nnc(-c3ncnc4[nH]ccc34)c2C)cc1
32.7% | 8.7% | 35% |  |  |  |  |  |  | Cc1c(-c2ncnc3[nH]ccc23)nnn1CCc1ccc(C(F)(F)F)cc1
19.3% |  | 0% |  |  |  |  |  |  | Cc1c(-c2ncnc3[nH]ccc23)nnn1Cc1cccc(OC(F)(F)F)c1
